Test results: US9493423B2, “Compounds capable of inhibiting voltage gated calcium ion channel, and pharmaceutical compositions comprising the same” (KOREA INSTITUTE OF SCIENCE AND TECHNOLOGY, priority 2015, dated 2016)

Columns and labels:
Format in all cases: cell-based
[1] = biological target: T1, α1G T-type calcium ion channel (Homo sapiens, UniProt O43497); assay: Antagonistic activity against T-type calcium ion channel, α1G (FDSS6000 screening / whole cell patch clamp in HEK293 cells); details: HEK293 cells expressing α1G
T1 construct: host or cells: HEK293 stably expressing α1G and Kir2.1, selected with G-418
Experimental: The novel compounds, represented by Chemical Formula 1, of the present invention were assayed for antagonistic activity against T-type calcium ion channels as follows.
After being synthesized, the compounds were primarily screened for inhibitory activity against T-type channels using a high-throughput screening device FDSS6000, and selection was made of the synthetic compounds that blocked T-type channels at an inhibitory rate of 40% or higher. In a secondary screening process, the selected compounds were examined for the effective inhibitory concentration IC50 by measuring Ca^2+ potentials in human HEK293 cells.
Using Titertek Multidrop Plate Dispenser, HEK293 cell line cells that stably expressed alG T-type calcium ion channel and Kir2.1 (α1G cell line: KCTC 10519BP, Korean Human Gene Bank of the Korea Research Institute of Bioscience and Biotechnology) were seeded at a density of 4×10^4 cells/well into 96-well plates that were treated with poly-L-lysine (0.05 mg/ml) 12˜24 hrs before activity screening. On the day of test, the cells adherent to the 96-well plates were washed three times with a HEPES buffer (150 mM NaCl, 5 mM KCl, 1 mM MgCl2, 2 mM CaCl2, 10 mM HEPES, 10 mM glucose, pH 7.4) using a 96-well plate washer (Bio Tek), and then stained with a fluorescent dye by treatment with a HEPES containing 5 μM fluo-3/AM and 0.001% Pluronic F-127 for 1 hr at room temperature. Again, the cells were washed twice with a HEPES buffer. Ten minutes before reading on FDSS6000, the cells were washed once with a HEPES buffer containing 10 mM CaCl2, and the final volume per well was adjusted to 81 μL. Separately from the 96-well plates in which cells were contained, two 96-well plates were prepared so as to contain KCl (final concentration 75 mM), which activates T-type calcium ion channels, and blocker drugs therein. Since most cell-based HTS devices, although provided with a liquid application system necessary for drug infusion, have no liquid absorption systems, blocker drugs to be searched for and KCl were individually prepared into a 5-fold higher concentration in 27 μL of 10 mM CaCl2 HEPES. The concentration was 1/5 diluted into a final volume of 135 μL in each well before measurement. For the FDSS6000 measurements, cells were pre-incubated with drugs for 75 seconds after the 20-sec baseline recordings, and a change in intracellular calcium concentration induced by KCl was measured. The percent inhibition by a test compound was calculated as integrated values of 340/380 fluorescent ratio of untreated and drug-treated cells.
For accurate calcium-imaging, the light source of 4 xenon lamps in FDSS6000 were irradiated to make the cells exposed selectively to the excitation wavelength (340 nm and 380 nm) by computer-controlled filter wheel. Data was obtained at regular intervals of each 1.23 second. The emitter fluorescence light flew in through a long-pass filter was obtained as an average 340/380 ratio value for each well in the 96-wells by using CCD camera and digital fluorescence analyzer in FDSS6000. All image data and analyses were obtained by using FDSS6000-exclusive program provide from Hamamatsu Photonics.
Dulbecco's modified Eagle's medium (DMEM) supplemented with 10% fetal bovine serum (FBS) and 1% penicillin/streptomycin (v/v) was employed. The cells were cultured at 36.5° C. in a humidified condition of 95% air/5% CO2 in an incubator. The medium was refreshed every 3 or 4 days while the cells were sub-cultured every week, with the growth of only α1G T-type calcium ion channel-expressing cells in the presence of G-418 (0.5 mg/mL). The recording to the cells used in the T-type calcium channel activity analysis was conducted 2-7 days after the cells were culturing on a cover slip coated with poly-L-lysine (0.5 mg/mL) when conducting every sub-culture. For analysis at a single cell level, the T-type calcium channel current was measured by an electrophysiological whole cell patch clamp method using EPC-9 amplifier (HEKA, German). […]

[2] = system: KYSE410 (Human Esophageal Carcinoma); assay: SRB (sulforhodamine B) assay of cancer cell growth, KYSE410; design: dose or concentration left out as unconfirmed; details: 48 hrs incubation
Experimental: (§1) For this assay, the cells at passages were separated from the surfaces of well plates using a trypsin-EDTA solution, and seeded at a density of 5×10^3 cells/well into 96-well plates. After 24 hrs of incubation in a CO2 incubator, the medium was removed. A 4-fold dilution of each of the compounds was added in an amount of 100 μL to each well, and the cells were incubated for 48 hrs. The cells were fixed by adding 100 μL of formalin to each well, washed five times with distilled water, dried at room temperature. The cells in each well were stained with 100 μL of 0.4% SRB for 30 min. at room temperature, washed five times with 1% acetic acid, and dried at room temperature. […] The optical density was read at 540 nm.
(§2) To calculate pharmaceutical efficacy of test compounds in cancer cells, GI50 was calculated according to the following Equation 1 or 2: […]
(§3) (wherein T0 is the number of cells before the addition of a test compound, and T2 is the number of cells after 48 hrs of incubation in the presence of a test compound)
(§4) The inhibition of cancer cell growth by the test compound (% inhibition) was determined by data regression using the Lotus program from the values calculated according to Equation 1, and the IC50 value was calculated from the % inhibition.

[3] = system: LNCap (Human Prostate Carcinoma); assay: SRB (sulforhodamine B) assay of cancer cell growth, LNCap; design: dose or concentration left out as unconfirmed; details: 48 hrs incubation
Experimental: as §1, §2, §3, §4

[4] = system: HT-1080 (Human Fibroblastoma); assay: SRB (sulforhodamine B) assay of cancer cell growth, HT-1080; design: dose or concentration left out as unconfirmed; details: 48 hrs incubation
Experimental: as §1, §2, §3, §4

U87-MG (Human Glioma) = assay: SRB (sulforhodamine B) assay of cancer cell growth, U87-MG; design: dose or concentration left out as unconfirmed; details: 48 hrs incubation
Experimental: as §1, §2, §3, §4

T1 sequence (O43497 whole entry): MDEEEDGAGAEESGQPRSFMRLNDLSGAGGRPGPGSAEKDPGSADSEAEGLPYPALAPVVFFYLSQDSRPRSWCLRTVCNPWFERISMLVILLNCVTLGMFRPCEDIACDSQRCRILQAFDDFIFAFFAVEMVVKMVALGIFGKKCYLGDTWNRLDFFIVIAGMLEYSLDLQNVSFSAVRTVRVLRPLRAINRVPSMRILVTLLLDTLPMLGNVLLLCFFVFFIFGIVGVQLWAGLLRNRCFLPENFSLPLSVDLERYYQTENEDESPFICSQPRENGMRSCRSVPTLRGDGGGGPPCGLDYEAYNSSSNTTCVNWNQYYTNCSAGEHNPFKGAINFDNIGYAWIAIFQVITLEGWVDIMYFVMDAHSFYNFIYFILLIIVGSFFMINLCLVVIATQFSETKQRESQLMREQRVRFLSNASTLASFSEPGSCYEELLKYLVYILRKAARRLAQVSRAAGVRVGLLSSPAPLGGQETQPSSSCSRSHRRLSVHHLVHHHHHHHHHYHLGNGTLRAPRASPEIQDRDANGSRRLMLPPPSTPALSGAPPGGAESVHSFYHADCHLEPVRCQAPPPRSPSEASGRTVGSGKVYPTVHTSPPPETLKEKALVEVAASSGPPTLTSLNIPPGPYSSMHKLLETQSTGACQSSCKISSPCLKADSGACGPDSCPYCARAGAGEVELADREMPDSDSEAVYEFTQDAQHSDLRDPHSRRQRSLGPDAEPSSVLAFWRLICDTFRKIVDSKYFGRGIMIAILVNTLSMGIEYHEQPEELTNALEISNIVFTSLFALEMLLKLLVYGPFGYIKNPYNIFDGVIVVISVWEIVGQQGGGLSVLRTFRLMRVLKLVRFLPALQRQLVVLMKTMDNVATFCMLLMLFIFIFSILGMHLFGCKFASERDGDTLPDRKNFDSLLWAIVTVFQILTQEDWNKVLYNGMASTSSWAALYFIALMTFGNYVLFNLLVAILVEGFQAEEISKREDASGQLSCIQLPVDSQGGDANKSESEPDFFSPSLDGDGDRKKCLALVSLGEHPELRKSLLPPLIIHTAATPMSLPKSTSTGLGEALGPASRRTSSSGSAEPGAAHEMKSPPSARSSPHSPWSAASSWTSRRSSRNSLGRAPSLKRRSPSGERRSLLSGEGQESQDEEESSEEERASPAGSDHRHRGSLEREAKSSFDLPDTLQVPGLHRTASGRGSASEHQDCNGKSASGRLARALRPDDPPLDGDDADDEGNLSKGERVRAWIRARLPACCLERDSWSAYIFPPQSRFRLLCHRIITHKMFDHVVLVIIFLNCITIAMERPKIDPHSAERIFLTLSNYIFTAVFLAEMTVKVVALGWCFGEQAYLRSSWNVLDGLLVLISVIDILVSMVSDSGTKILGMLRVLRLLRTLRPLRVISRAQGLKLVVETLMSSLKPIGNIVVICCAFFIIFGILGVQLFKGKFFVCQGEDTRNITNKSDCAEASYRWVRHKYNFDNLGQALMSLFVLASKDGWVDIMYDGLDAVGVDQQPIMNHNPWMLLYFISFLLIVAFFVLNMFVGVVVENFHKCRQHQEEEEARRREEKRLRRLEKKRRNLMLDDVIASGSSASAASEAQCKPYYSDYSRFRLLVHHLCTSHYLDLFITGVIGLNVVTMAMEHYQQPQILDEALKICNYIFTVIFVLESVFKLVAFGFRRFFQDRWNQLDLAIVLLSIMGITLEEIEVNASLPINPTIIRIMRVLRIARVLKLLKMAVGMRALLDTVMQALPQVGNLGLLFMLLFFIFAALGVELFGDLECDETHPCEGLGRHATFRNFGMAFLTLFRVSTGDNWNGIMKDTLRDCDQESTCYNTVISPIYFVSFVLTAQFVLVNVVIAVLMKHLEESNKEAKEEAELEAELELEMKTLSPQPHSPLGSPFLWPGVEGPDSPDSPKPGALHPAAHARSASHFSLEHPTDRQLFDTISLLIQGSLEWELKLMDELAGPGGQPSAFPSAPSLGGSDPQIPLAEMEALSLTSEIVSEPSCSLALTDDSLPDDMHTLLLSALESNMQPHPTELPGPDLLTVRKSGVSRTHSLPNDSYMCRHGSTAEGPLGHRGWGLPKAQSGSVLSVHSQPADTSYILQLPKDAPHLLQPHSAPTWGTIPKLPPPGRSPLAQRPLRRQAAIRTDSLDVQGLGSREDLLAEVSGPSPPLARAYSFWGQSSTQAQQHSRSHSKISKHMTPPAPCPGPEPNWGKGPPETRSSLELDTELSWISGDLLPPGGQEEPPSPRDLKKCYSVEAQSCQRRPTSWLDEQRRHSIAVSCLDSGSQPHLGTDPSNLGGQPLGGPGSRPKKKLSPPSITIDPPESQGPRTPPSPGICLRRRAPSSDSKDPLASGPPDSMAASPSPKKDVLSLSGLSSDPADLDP

| Compound | inhibition at 10 µM [1] | also measured |
| --- | --- | --- |
| CC(C)Cc1cc(CNS(=O)(=O)c2ccccc2)nn1-c1ccccc1 [Compound 1, N-[(5-Isobutyl-1-phenyl-1H-pyrazol-3-yl)methyl]benzenesulfonamide] | 61.4% |  |
| CC(C)Cc1cc(CNS(=O)(=O)c2cccc(F)c2)nn1-c1ccccc1 [Compound 2, N-[(5-Isobutyl-1-phenyl-1H-pyrazol-3-yl)methyl]-3-fluorobenzenesulfonamide] | 64.1% |  |
| CC(C)Cc1cc(CNS(=O)(=O)c2cccc(Cl)c2)nn1-c1ccccc1 [Compound 3, N-[(5-Isobutyl-1-phenyl-1H-pyrazol-3-yl)methyl]-3-chlorobenzenesulfonamide] | 57.6% |  |
| Cc1ccc(S(=O)(=O)NCc2cc(CC(C)C)n(-c3ccccc3)n2)cc1 [Compound 4, N-[(5-Isobutyl-1-phenyl-1H-pyrazol-3-yl)methyl]-4-methylbenzenesulfonamide] | 57.3% |  |
| CC(C)Cc1cc(CNS(=O)(=O)Cc2ccccc2)nn1-c1ccccc1 [Compound 7, N-[(5-Isobutyl-1-phenyl-1H-pyrazol-3-yl)methyl]benzylsulfonamide] | 65.7% |  |
| CC(C)Cc1cc(CNS(=O)(=O)c2cccc3cccnc23)nn1-c1ccccc1 [Compound 10, N-[(5-Isobutyl-1-phenyl-1H-pyrazol-3-yl)methyl]quinoline-8-sulfonamide] | 29.8% |  |
| Cc1ccc(F)c(S(=O)(=O)NCc2cc(CC(C)C)n(-c3ccccc3)n2)c1 [Compound 11, N-[(5-Isobutyl-1-phenyl-1H-pyrazol-3-yl)methyl]-(2-fluoro-5-methyl)benzenesulfonamide] |  | Inhibition % for Cancer Cell KYSE410 [2]: 47.30%; Inhibition % for Cancer Cell LNCap [3]: 71.41%; Inhibition % for Cancer Cell HT1080 [4]: 57.56%; Inhibition % for Cancer Cell U87-MG (U87-MG (Human Glioma)): 34.40%; Inhibition % α1G (10 μM) [1]: 54.86% |
| CC(C)Cc1cc(CNS(=O)(=O)c2c(F)cccc2F)nn1-c1ccccc1 [Compound 13, N-[(5-Isobutyl-1-phenyl-1H-pyrazol-3-yl)methyl]-2,6-difluorobenzenesulfonamide] | 45.1% |  |
| Cc1c(CNS(=O)(=O)c2ccccc2)nn(-c2ccccc2)c1CC(C)C [Compound 15, N-[(5-Isobutyl-4-methyl-1-phenyl-1H-pyrazol-3-yl)methyl]benzenesulfonamide] | 70.5% |  |
| Cc1c(CNS(=O)(=O)c2ccc3ccccc3c2)nn(-c2ccccc2)c1CC(C)C [Compound 16, N-[(5-Isobutyl-4-methyl-1-phenyl-1H-pyrazol-3-yl)methyl]naphthalene-2-sulfonamide] | 74.2% |  |
| CC(C)Cc1cc(CNS(=O)(=O)c2ccccc2)nn1-c1ccc(F)cc1 [Compound 20, N-[(5-Isobutyl-1-(4-fluorophenyl)-1H-pyrazol-3-yl)methyl]benzenesulfonamide] | 45.6% |  |
| CC(C)Cc1cc(CN2Cc3ccccc3S2(=O)=O)nn1-c1ccccc1 [Compound 28, 2-((5-Isobutyl-1-phenyl-1H-pyrazol-3-yl)methyl)-2,3-dihydrobenzo[d]isothiazole-1,1-dioxide] | 67.9% |  |
| CC(C)Cc1cc(CN2Cc3ccccc3S2(=O)=O)nn1C(C)(C)C [Compound 29, 2-[{1-(tert-Butyl)-5-isobutyl-1H-pyrazol-3-yl}methyl]-2,3-dihydro[d]isothiazole 1,1-dioxide] |  | Inhibition % α1G (10 μM) [1]: 60.62% |
| CC(C)Cc1cc(CN2Cc3ccccc3S2(=O)=O)nn1-c1ccc(F)cc1 [Compound 30, 2-[{1-(4-Fluorophenyl)-5-isobutyl-1H-pyrazol-3-yl}methyl]-2,3-dihydro[d]isothiazole 1,1-dioxide] |  | Inhibition % α1G (10 μM) [1]: 70.81% |
| CC(C)(C)n1nc(CN2Cc3ccccc3S2(=O)=O)cc1-c1ccc(C2CCCCC2)cc1 [Compound 36, 2-[{1-(tert-Butyl)-5-(4-cyclohexylphenyl)-1H-pyrazol-3-yl}methyl]-2,3-dihydro[d]isothiazole 1,1-dioxide] |  | Inhibition % α1G (10 μM) [1]: 45.62% |
